Values of other authors in article PMC6311893, “Computational prediction of plasma protein binding of cyclic peptides from small molecule experimental data using sparse modeling techniques” (BMC Bioinformatics, 2018).

Test system: plasma protein
Details: fraction bound to plasma protein; small molecule dataset, sheet 1-SM (Set Dte = test, Dtr = training); ref Ingle et al.; cited from earlier work

Point of comparison: C=C(c1ccc(C(=O)O)cc1)c1cc2c(cc1C)C(C)(C)CCC2(C)C [Bexarotene], “PPB (fb)” value 0.99. Against it:
- CCOC(=O)NC1=C(N2CC2)C(=O)C(NC(=O)OCC)=C(N2CC2)C1=O [diaziquone] — lower, 0.79
- CNCCCC12CCC(c3ccccc31)c1ccccc12 [Maprotiline] — lower, 0.89
- Cc1cc(CC(=O)O)n(C)c1C(=O)c1ccc(Cl)cc1 [zomepirac] — lower, 0.98
- CNCCc1ccccn1 [betahistine] — lower, 0.03
- COC(=O)N[C@H](C(=O)N[C@@H](Cc1ccccc1)[C@@H](O)CN(Cc1ccc(-c2ccccn2)cc1)NC(=O)[C@@H](NC(=O)OC)C(C)(C)C)C(C)(C)C [Atazanavir] — lower, 0.86
- CC1(C)SC2C(NC=O)C(=O)N2C1C(=O)O (centres unmarked) [penicillin1] — lower, 0.18
- O=C(O)c1cn(-c2cccc(C(F)(F)F)c2)c2cc(N3CCNCC3)c(F)cc2c1=O [3b(m-CF3)] — lower, 0.62
- CN(C)CCOC1=Cc2ccccc2Sc2ccc(Cl)cc21 [zotepine] — lower, 0.97
- CN(C)c1nc(N(C)C)nc(N(C)C)n1 [altretamine] — lower, 0.94
- CC1(C)S[C@@H]2[C@H](/N=C/N3CCCCCC3)C(=O)N2[C@H]1C(=O)O [amdinocillin] — lower, 0.14
- C=CCOc1ccc(CC(=O)O)cc1Cl [alclofenac] — the same, 0.99
- Cc1cc2c(OCC(CNC(C)(C)C)OC(=O)c3ccccc3)cccc2[nH]1 (centres unmarked) [bopindolol] — lower, 0.65
- CN(C)CCC=C1c2ccccc2C=Cc2ccccc21 [cyclobenzaprine] — lower, 0.93
- CC(=O)OCC(=O)[C@@]1(O)CC[C@H]2[C@@H]3CCC4=CC(=O)CC[C@]4(C)[C@H]3C(=O)C[C@@]21C [cortisone acetate] — lower, 0.95
- CN(C)CCC=C1c2ccccc2CCc2ccccc21 [Amitriptyline] — lower, 0.94
- CNC[C@H](O)c1cccc(O)c1 [phenylephrine] — lower, 0.51
- CCN(CC)C(=S)SSC(=S)N(CC)CC [disulfiram] — lower, 0.5
- Nc1ccc(S(=O)(=O)Nc2ccnn2-c2ccccc2)cc1 [sulfaphenazole] — lower, 0.95
- O=C(O)c1cc(=O)c2c(OCC(O)COc3cccc4oc(C(=O)O)cc(=O)c34)cccc2o1 [cromolyn] — lower, 0.68
- COc1ccc2c(c1)c(CC(=O)OCC(=O)O)c(C)n2C(=O)c1ccc(Cl)cc1 [acemetacin] — lower, 0.9
- Cc1c(N(C)C)c(=O)n(-c2ccccc2)n1C [amidopyrine] — lower, 0.3
- C=CC1=C(C(=O)O)N2C(=O)[C@@H](NC(=O)/C(=N\O)c3csc(N)n3)[C@H]2SC1 [cefdinir] — lower, 0.65
- CCc1oc2ccccc2c1C(=O)c1cc(Br)c(O)c(Br)c1 [benzbromarone] — the same, 0.99
- CC1(C)S[C@@H]2[C@H](NC(=O)C(c3ccccc3)S(=O)(=O)O)C(=O)N2[C@H]1C(=O)O (some centres unmarked) [Sulbenicillin] — lower, 0.5
- N[C@@H]1CN(c2c(F)cc3c(=O)c(C(=O)O)cn([C@@H]4C[C@@H]4F)c3c2Cl)CC12CC2 [Sitafloxacin] — lower, 0.49
- CC(C)(C#N)c1cc(Cn2cncn2)cc(C(C)(C)C#N)c1 [anastrozole] — lower, 0.44

Same assay, conditions: fraction bound to plasma protein; small molecule dataset, sheet 1-SM, Set Dtr; ref Ingle et al.; cited from earlier work

Point of comparison: OC(CCN1CCCCC1)(c1ccccc1)C1CC2C=CC1C2 (centres unmarked) [Biperiden], “PPB (fb)” value 0.93. Against it:
- CC1=NS(=O)(=O)c2cc(Cl)ccc2N1 [Diazoxide] — lower, 0.92
- CN(C)CCCN1c2ccccc2CCc2ccccc21 [Imipramine] — lower, 0.9
- C=C1CC[C@@]2(O)[C@H]3Cc4ccc(O)c5c4[C@@]2(CCN3CC2CC2)[C@H]1O5 [Nalmefene] — lower, 0.36
- C[C@]12CCC(=O)C=C1CC[C@@H]1[C@@H]2[C@@H](O)C[C@@]2(C)[C@H]1CC[C@]2(O)C(=O)CO [Hydrocortisone] — lower, 0.8
- Cc1cccc(C)c1NC(=O)NCCCNC(C)C [Recainam] — lower, 0.14
- Cc1ccnc2c1NC(=O)c1cccnc1N2C1CC1 [Nevirapine] — lower, 0.64
- CN1CCN(C2=Nc3cc(Cl)ccc3Nc3ccccc32)CC1 [Clozapine] — higher, 0.95
- O=C(c1ccc(F)cc1)C1CCN(CCn2c(=O)[nH]c3ccccc3c2=O)CC1 [Ketanserin] — higher, 0.95
- O=C(NCCN1CCOCC1)c1ccc(Cl)cc1 [Moclobemide] — lower, 0.36
- Nc1nc(NC2CC2)c2ncn([C@H]3C=C[C@@H](CO)C3)c2n1 [Abacavir] — lower, 0.5
- CN(C)CCC=C1c2ccccc2COc2ccccc21 [Doxepin] — lower, 0.81
- COc1ccc([C@]2(C#N)CC[C@@H](C(=O)O)CC2)cc1OC1CCCC1 [Cilomilast] — higher, 0.99
- Nc1cc(-c2ccncc2)c[nH]c1=O [Amrinone] — lower, 0.11
- COc1cc(C(=O)NS(=O)(=O)c2ccccc2C)ccc1Cc1cn(C)c2ccc(NC(=O)OC3CCCC3)cc12 [zafirlukast] — higher, 0.99

Same assay, conditions: fraction bound to plasma protein; small molecule dataset, sheet 1-SM; ref Ingle et al.; cited from earlier work

Point of comparison: C#C[C@]1(O)CC[C@H]2[C@@H]3CCC4=CC(=O)CC[C@@H]4[C@H]3CC[C@@]21C [norethisterone], “PPB (fb)” value 0.8. Against it:
- C=C(CC)C(=O)c1ccc(OCC(=O)O)c(Cl)c1Cl [ethacrynic acid] — higher, 0.9
- CC(=O)OCC(CCn1cnc2cnc(N)nc21)COC(C)=O [famciclovir] — lower, 0.15
- COc1c(C)nc2ccccc2c1C(=O)NC1C(=O)N2C1SC(C)(C)C2C(=O)O (centres unmarked) [penicillin77] — lower, 0.62
- CCCCN1C[C@H](O)[C@@H](O)[C@H](O)[C@H]1CO [Miglustat] — lower, 0.01
- Nc1n[n+]([O-])c2ccccc2[n+]1[O-] [Tirapazamine] — lower, 0.19
- CCC(COc1c(Cl)cccc1Cl)C(=O)NC1C(=O)N2C1SC(C)(C)C2C(=O)O (centres unmarked) [penicillin63] — higher, 0.95
- CCC(CC)OCC(=O)NC1C(=O)N2C1SC(C)(C)C2C(=O)O (centres unmarked) [penicillin8] — lower, 0.47
- Cc1c(C(C)C)c(=O)n(-c2ccccc2)n1C [propyphenazone] — lower, 0.1
- O=C(O)c1cccnc1 [niacin] — lower, 0.22
- CC[C@@]1(O)C(=O)OCc2c1cc1n(c2=O)Cc2cc3c(CN(C)C)c(O)ccc3nc2-1 [Topotecan] — lower, 0.25
- CCC1(C)OC(=O)N(C)C1=O (centres unmarked) [paramethadione] — lower, 0
- CN(C/C=C/C#CC(C)(C)C)Cc1cccc2ccccc12 [terbinafine] — higher, 0.99
- COC(C(=O)NC1C(=O)N2C1SC(C)(C)C2C(=O)O)c1cc(Cl)c(Cl)c(Cl)c1 (centres unmarked) [penicillin43] — higher, 0.96
- CC(CN(C)C)CN1c2ccccc2CCc2ccccc21 (centres unmarked) [Trimipramine] — higher, 0.95
- O=C1C(CC[S+]([O-])c2ccccc2)C(=O)N(c2ccccc2)N1c1ccccc1 (centres unmarked) [Sulfinpyrazone] — higher, 0.98
- NCC1OC(OC2C(CO)OC(OC3C(O)C(N)CC(N)C3OC3OC(CN)C(O)C(O)C3N)C2O)C(N)C(O)C1O (centres unmarked) [neomycin] — lower, 0.2
- COc1nccnc1NS(=O)(=O)c1ccc(N)cc1 [sulfametopyrazine] — lower, 0.72
- S=P(N1CC1)(N1CC1)N1CC1 [Thiotepa] — lower, 0.1
- CC(C)Cc1ccc(C(C)C(=O)NCCCN2CCCC2)cc1 (centres unmarked) [JMC_06] — higher, 0.85
- CCOc1cc(CC(=O)N[C@@H](CC(C)C)c2ccccc2N2CCCCC2)ccc1C(=O)O [Repaglinide] — higher, 0.98
- CC(C(=O)O)c1ccc(C(=O)c2cccs2)cc1 (centres unmarked) [Suprofen] — higher, 0.99
- CCN(CC)CCNC(=O)c1ccc(NS(C)(=O)=O)cc1 [Sematilide] — lower, 0.04
- CC(Oc1ccc(F)cc1)C(=O)NC1C(=O)N2C1SC(C)(C)C2C(=O)O (centres unmarked) [penicillin62] — the same, 0.8
- Cc1ccnc(NS(=O)(=O)c2ccc(N)cc2)n1 [sulfamerazine] — higher, 0.85
- CC(C)(C)NC[C@H](O)COc1nsnc1N1CCOCC1 [Timolol] — lower, 0.1
- CCc1cc(C(N)=S)ccn1 [ethionamide] — lower, 0.3
- COC1=C(OC)C(=O)C(CCCCCCCCCCO)=C(C)C1=O [idebenone] — higher, 0.9
- CC(=O)Oc1cc(C(C)C)c(OCCN(C)C)cc1C [Moxisylyte] — lower, 0.26
- O=P(O)(O)C(O)(Cn1ccnc1)P(=O)(O)O [Zoledronic Acid] — lower, 0.22
- CC(C(=O)NC1C(=O)N2C1SC(C)(C)C2C(=O)O)c1ccccc1 (centres unmarked) [penicillin19] — lower, 0.68
- CC(C(=O)O)c1ccc(N2Cc3ccccc3C2=O)cc1 (centres unmarked) [indoprofen] — higher, 0.99

Same assay, conditions: plasma; cited from earlier work

Point of comparison: Nisoldipine, “PPB (fb)” value 1. Against it:
- Cc1cc(=O)n(-c2ccccc2)n1C [Antipyrine] — lower, 0.07
- Tigecycline — lower, 0.8
- CNC(C)C1CCC(N)C(OC2C(N)CC(N)C(OC3OCC(C)(O)C(NC)C3O)C2O)O1 (centres unmarked) [Gentamicin] — lower, 0.1
- C[C@]12CCC(=O)C(O)=C1CC[C@@H]1[C@@H]2CC[C@]2(C)C(=O)CC[C@@H]12 [formestane] — lower, 0.84
- O=C1CN=C(c2ccccn2)c2cc(Br)ccc2N1 [Bromazepam] — lower, 0.61
- lacidipine — lower, 0.95
- COc1ccc(Cc2nccc3cc(OC)c(OC)cc23)cc1OC [Papaverine] — lower, 0.9
- CC(C)c1cccc(C(C)C)c1O [Propofol] — lower, 0.98
- Cefmetazole — lower, 0.77
- CCOC(=O)[C@@H]1C2CCC(C[C@@H]1OC(=O)c1ccccc1)N2C (some centres unmarked) [Cocaethylene] — lower, 0.36
- Pyridostigmine — lower, 0
- Clc1ccc2c(c1)C(c1ccccc1)=NCc1nncn1-2 [estazolam] — lower, 0.93
- CCCCCCCC(=O)NC1C(=O)N2C1SC(C)(C)C2C(=O)O (centres unmarked) [penicillin3] — lower, 0.92
- CC(=O)C1(O)CCC2C3CCC4=CC(=O)CCC4(C)C3CCC21C (centres unmarked) [17-hydroxyprogesterone] — lower, 0.85
- O=C(C[S+]([O-])C(c1ccccc1)c1ccccc1)NO (centres unmarked) [adrafinil] — lower, 0.8
- CN(C)Cc1nnc2n1-c1ccc(Cl)cc1C(c1ccccc1)=NC2 [Adinazolam] — lower, 0.69
- CCN(C(C)=O)c1cccc(-c2ccnc3c(C#N)cnn23)c1 [Zaleplon] — lower, 0.6
